From ChEMBL document CHEMBL1201862, “PubChem BioAssay data set” (2004)
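Step 1: Grow cells in 96-well plates. Step 2: Expose to compound for 48 hours at 5 concentrations. Step 3: Interpolate endpoints linearly; if unreached, use highest concentration. At the GI50, growth is halved.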 The source made the active and inactive calls. Cut-off read from the data, not from the text of the source: active = GI50 up to about 1.1 µM and inactive = higher.

Tests used:
Test in all cases: DTP human tumour cell line panel, 48 h
[1] = tested on: 786-0
[2] = tested on: ACHN
[3] = tested on: DU-145
[4] = tested on: HCC 2998
[5] = tested on: HCT-15
[6] = tested on: HOP-62
[7] = tested on: M14
[8] = tested on: MCF7
[9] = tested on: MOLT-4
[10] = tested on: NCI-H522
[11] = tested on: NCI/ADR-RES
[12] = tested on: OVCAR-3
[13] = tested on: OVCAR-8
[14] = tested on: RXF 393
[15] = tested on: SF-539
[16] = tested on: T47D
[17] = tested on: TK-10
[18] = tested on: U-251
[19] = tested on: UACC-257
[20] = tested on: UO-31

Measured: GI50

O=C(OCc1ccccc1)N(CCCCN(CCCNCc1ccccc1)C(=O)OCc1ccccc1)CCCNCc1ccccc1
inactive: [2] 1.51 µM | [3] 1.27 µM | [6] 1.6 µM | [8] 7.76 µM | [11] 1.71 µM | [12] 1.39 µM | [13] 1.54 µM | [14] 1.63 µM | [16] 1.98 µM | [17] 1.58 µM | [20] 1.38 µM
0.352 µM: [5]
active: [1] 0.289 µM | [4] 0.462 µM | [7] 0.252 µM | [9] 0.194 µM | [10] 0.647 µM | [15] 0.243 µM | [18] 0.258 µM | [19] 0.36 µM

CC(C)CCCCCCCCCCCCC(=O)NCC(=O)NC1C(O)C(O)C(Nc2[nH]cnc3ncnc2-3)OC1C(O)CO (stereo not drawn)
0.0653 µM: [5]
active: [1] 0.225 µM | [2] 0.225 µM | [3] 0.19 µM | [4] 0.00018 µM | [6] 0.000453 µM | [7] 0.191 µM | [8] 0.0234 µM | [9] 0.0121 µM | [10] 0.000664 µM | [11] 0.00403 µM | [12] 0.000605 µM | [13] 0.000578 µM | [14] 0.000877 µM | [15] 0.000849 µM | [16] 0.32 µM | [17] 0.179 µM | [18] 0.000461 µM | [19] 0.000605 µM | [20] 0.000574 µM

Cc1ccc(C2SC(=N)Nc3c2c(C)nn3C(=O)c2ccc(Cl)cc2)cc1 (stereo not drawn)
> 10 µM: [5]
inactive: [1] > 10 µM | [2] > 10 µM | [3] > 10 µM | [4] > 10 µM | [6] > 10 µM | [7] > 10 µM | [8] > 10 µM | [9] > 10 µM | [10] > 10 µM | [11] > 10 µM | [12] > 10 µM | [13] > 10 µM | [14] > 10 µM | [15] > 10 µM | [16] > 10 µM | [17] > 10 µM | [18] > 10 µM | [19] > 10 µM

Nc1nc(S)c2c(N)n[nH]c2c1C(=O)Nc1ccc(Cl)cc1
74.8 µM: [5]
inactive: [1] 45.9 µM | [3] 47 µM | [4] > 100 µM | [7] 45.4 µM | [8] > 100 µM | [9] > 100 µM | [10] 96.4 µM | [11] > 100 µM | [12] > 100 µM | [13] 32.1 µM | [14] > 100 µM | [15] > 100 µM | [16] 44.6 µM | [17] > 100 µM | [18] > 100 µM | [19] 77.1 µM | [20] 74 µM

Cc1c(C(=O)O)n2c(S)nnc2c2ccccc12
> 100 µM: [5]
inactive: [1] > 100 µM | [2] > 100 µM | [3] > 100 µM | [4] > 100 µM | [6] > 100 µM | [7] > 100 µM | [8] > 100 µM | [9] > 100 µM | [10] > 100 µM | [11] > 100 µM | [12] > 100 µM | [13] > 100 µM | [14] > 100 µM | [15] > 100 µM | [16] > 100 µM | [17] > 100 µM | [18] > 100 µM | [19] > 100 µM | [20] > 100 µM

CCOC(=O)C(C#N)C1=CC(=O)C(=O)c2ccc(O)cc21 (stereo not drawn)
> 100 µM: [5]
inactive: [1] > 100 µM | [2] 42.3 µM | [3] > 100 µM | [4] > 100 µM | [6] > 100 µM | [7] 20.9 µM | [8] > 100 µM | [9] > 100 µM | [10] 26.9 µM | [11] > 100 µM | [12] 64 µM | [13] 44.7 µM | [14] > 100 µM | [15] 55.3 µM | [16] 79.4 µM | [17] > 100 µM | [18] 48.5 µM | [19] 31.9 µM | [20] 30.5 µM

COc1cc2c(cc1OC)CN1CCCc3cc(OC)c(OC)cc3C1C2 (stereo not drawn)
41.6 µM: [5]
inactive: [1] 33.2 µM | [2] 34.1 µM | [3] 76 µM | [4] 33.7 µM | [6] 25 µM | [7] 40.6 µM | [8] 31 µM | [9] 88.1 µM | [10] 29.4 µM | [11] > 100 µM | [12] 39.3 µM | [13] 57.7 µM | [14] 29.6 µM | [15] 24.3 µM | [16] 22.9 µM | [17] 51.4 µM | [18] 36.6 µM | [19] 67.5 µM | [20] 43.1 µM

O=C1CSC(=S)N1c1ccc(F)cc1F
36.2 µM: [5]
inactive: [1] > 100 µM | [2] 53.7 µM | [3] > 100 µM | [4] 34.8 µM | [6] > 100 µM | [7] 40.9 µM | [8] 21.7 µM | [10] 18 µM | [11] 42.2 µM | [12] 41.3 µM | [13] 58.3 µM | [14] 72.9 µM | [15] 38.7 µM | [16] 30 µM | [17] 94.4 µM | [18] 59.2 µM | [19] 43.8 µM | [20] 89.9 µM

CC(C)OC(=O)C1(C(C)C)CCc2ccc(C(=O)CCC(=O)O)cc21 (stereo not drawn)
inactive: [1] > 100 µM | [2] > 100 µM | [3] > 100 µM | [4] > 100 µM | [6] > 100 µM | [7] > 100 µM | [8] > 100 µM | [9] > 100 µM | [10] > 100 µM | [11] > 100 µM | [13] > 100 µM | [14] > 100 µM | [15] > 100 µM | [16] > 100 µM | [17] > 100 µM | [18] > 100 µM | [19] > 100 µM | [20] > 100 µM
> 100 µM: [5]

COc1ccc2c(c1)c1nn(CCN3CCCCC3)c3ccc4c(=O)n(CCN(C)C)c(=O)n2c4c13
active: [1] < 0.01 µM | [2] < 0.01 µM | [3] < 0.01 µM | [4] < 0.01 µM | [6] < 0.01 µM | [7] 0.0188 µM | [8] < 0.01 µM | [9] < 0.01 µM | [10] < 0.01 µM | [11] < 0.153 µM | [12] 0.0151 µM | [13] < 0.01 µM | [14] < 0.0164 µM | [15] 0.0284 µM | [16] < 0.0175 µM | [17] 0.029 µM | [18] < 0.01 µM | [19] 0.244 µM | [20] < 0.0116 µM
< 0.01 µM: [5]

CC(=O)OC/C=C(/CCl)CCC(Br)C(C)(C)Br.CC(=O)OC/C=C(\CCl)CCC(Br)C(C)(C)Br (stereo not drawn)
inactive: [1] > 10 µM | [2] > 10 µM | [3] > 10 µM | [4] > 10 µM | [6] > 10 µM | [7] > 10 µM | [8] > 10 µM | [9] > 10 µM | [10] > 10 µM | [11] > 10 µM | [12] > 10 µM | [13] > 10 µM | [14] > 10 µM | [15] > 10 µM | [16] > 10 µM | [17] > 10 µM | [18] > 10 µM | [19] > 10 µM | [20] > 10 µM
> 10 µM: [5]

CN(CCCNC(=O)c1cc(-c2ccccc2)nc2ccccc12)CCCNC(=O)c1cc(-c2ccccc2)nc2ccccc12
4 µM: [5]
inactive: [1] 1.7 µM | [2] 2.81 µM | [3] 3.58 µM | [4] 1.93 µM | [6] 1.82 µM | [7] 1.71 µM | [8] 1.48 µM | [9] 2.45 µM | [10] 1.77 µM | [11] 2.84 µM | [12] 3.27 µM | [13] 2.32 µM | [14] 4.62 µM | [15] 2.2 µM | [16] 2.95 µM | [17] 4.45 µM | [18] 2.04 µM | [19] 1.78 µM | [20] 2.31 µM

Cc1cc2nn(C3CCCO3)nc2cc1C (stereo not drawn)
> 100 µM: [5]
inactive: [1] > 100 µM | [3] > 100 µM | [4] > 100 µM | [6] > 100 µM | [7] > 100 µM | [8] > 100 µM | [9] > 100 µM | [10] > 100 µM | [11] > 100 µM | [12] > 100 µM | [13] > 100 µM | [14] > 100 µM | [15] > 100 µM | [16] > 100 µM | [17] > 100 µM | [18] > 100 µM | [19] > 100 µM

CC[C@@]1(O)C(=O)OCc2c1cc1n(c2=O)Cc2c-1nc1ccccc1c2/C=N/NC(=O)c1ccc(N)cc1
2.95 µM: [5]
active: [1] 0.0422 µM | [2] 0.0244 µM | [3] 0.0383 µM | [6] 0.0333 µM | [7] 0.0585 µM | [8] < 0.016 µM | [9] 0.0111 µM | [10] < 0.0405 µM | [11] 0.392 µM | [12] 0.714 µM | [13] 0.0944 µM | [14] < 0.0322 µM | [15] < 0.01 µM | [16] < 0.01 µM | [18] < 0.0141 µM | [20] 0.258 µM
inactive: [4] 1.12 µM | [17] 15.6 µM | [19] 6.44 µM

Cc1cc(=O)oc2cc(SC(=O)N(C)C)ccc12
inactive: [1] > 100 µM | [2] > 100 µM | [3] > 100 µM | [4] > 100 µM | [6] > 100 µM | [7] > 100 µM | [8] > 100 µM | [9] > 100 µM | [10] > 100 µM | [11] > 100 µM | [12] > 100 µM | [13] > 100 µM | [14] > 100 µM | [15] > 100 µM | [16] > 100 µM | [17] > 100 µM | [18] > 100 µM | [19] > 100 µM | [20] > 100 µM
> 100 µM: [5]
